Laboratory results from patent publication US20250275959A1, “COMPOUNDS AND METHODS OF THEIR USE” (LEXICON PHARMACEUTICALS, INC., priority 2024, published 2025).
pIC50: −log10 of the molar value.

Key:
hACSL5 [1] = target: T1, hACSL5 (Homo sapiens (Human), UniProt Q9ULC5); test: Cell-based assay (CBA) with B12FA in hACSL5-transfected Expi293F / FlpIn TRex293 cells; conditions: hACSL5-expressing cells
From the text: To assess the cell penetration and cellular activity of the compounds, a cell-based assay (CBA) was used to detect compound potency in living cells. The assay utilized the fluorescent fatty acid analogue B12FA, a boron-dipyrromethene (BODIPY™) labelled C12 fatty acid that can be incorporated into glycerophosphocholine in the cytoplasmic oil droplets of live cells. A concentration-dependent, red-shifted fluorescence can be induced by the formation of BODIPY™ excimers in the oil droplets.
Expi293F cells transfected with full length hACSL5 plasmid were selected using 1 mg/mL G418 culture medium and clones were selected by in vitro whole cell lysate (WCL) assay. The cell passage number used in the Expi293 CBA assay could not be used beyond 10 passages due to a decrease in hACSL5 expression. Therefore, a CBA using FlpIn TRex293 cells for inducible expression of hACSL5 was also established.
FlpIn TRex293 cells transfected with hACSL5 plasmid were selected in culture medium containing 15 µg/ml Blasticidin and 150 µg/ml Hygromycin. For cell-based assays, stable transfected hACSL5 cells were seeded onto a 96-well plate at 30-50k/well and incubated overnight. For the inducible system, […] tetracycline (or doxycycline) was added to culture medium of FlpIn TRex293 hACSL5 cells on the day before the assay to induce expression of hACSL5. The next day, growth media was replaced with culture medium without FBS and glucose (DMEM glucose (-), ThermoFisher) and cells were incubated for an hour before treating cells with serial diluted compounds containing 20 µM B12FA (ThermoFisher) for another 3 hours in the above medium. Cells were then fixed in 4% formaldehyde for 10 minutes and washed twice with PBS. The plate was read using the Cytation 5 imaging system with an excitation wavelength of 485 nm and observed emissions at 630 nm and 520 nm. The percentage of inhibition was calculated as: […]
wherein A is the ratio of emission intensities at 630 nm/520 nm in the absence of inhibitor (maximum ratio); B is the ratio of the intensities at those wavelengths in the presence of […] of the test compound or non-induced cells (minimum ratio); and X is the ratio of the intensities at a given compound concentration.
Concentration-response titration points for each compound tested were filled to the Hill equation yielding concentrations of half maximal inhibition […] and maximal inhibition values.
Target sequence in this assay (Q9ULC5 whole entry): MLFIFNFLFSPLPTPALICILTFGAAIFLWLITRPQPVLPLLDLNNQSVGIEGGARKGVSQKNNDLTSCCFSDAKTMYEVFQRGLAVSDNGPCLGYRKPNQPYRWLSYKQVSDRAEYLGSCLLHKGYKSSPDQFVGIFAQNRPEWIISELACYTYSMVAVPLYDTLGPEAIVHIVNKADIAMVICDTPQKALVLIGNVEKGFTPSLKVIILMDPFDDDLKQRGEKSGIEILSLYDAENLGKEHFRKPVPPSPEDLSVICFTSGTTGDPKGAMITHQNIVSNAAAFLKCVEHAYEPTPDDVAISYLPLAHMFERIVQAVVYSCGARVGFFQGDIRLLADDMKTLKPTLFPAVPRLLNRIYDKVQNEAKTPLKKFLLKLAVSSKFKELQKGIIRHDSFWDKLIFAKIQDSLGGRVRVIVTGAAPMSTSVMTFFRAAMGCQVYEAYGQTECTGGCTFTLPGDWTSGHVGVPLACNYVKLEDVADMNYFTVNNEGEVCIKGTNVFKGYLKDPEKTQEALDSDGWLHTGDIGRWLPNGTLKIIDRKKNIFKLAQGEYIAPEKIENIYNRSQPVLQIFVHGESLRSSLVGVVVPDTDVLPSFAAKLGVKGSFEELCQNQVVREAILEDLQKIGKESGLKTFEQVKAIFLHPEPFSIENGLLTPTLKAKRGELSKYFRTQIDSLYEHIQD

hACSL5 [2] = target: T1, hACSL5; test: Human ACSL5 coupled enzyme Amplex Red assay; format: biochemical; conditions: read-out: hACSL5 IC50
In short: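 Amplex Red coupled readout: 1 mM ATP, 25 μM oleate and 30 μM CoA were added to compound-preincubated enzyme (20 nM, residues 33-683, insect-cell expressed, His-tagged) with coupling peroxidase and acyl-CoA oxidase at pH 7.6. Signal was read at 535/590 nm after 10 minutes at 25° C., and Hill fits yielded half-maximal and maximal inhibition.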
Target sequence in this assay (Q9ULC5 33-683): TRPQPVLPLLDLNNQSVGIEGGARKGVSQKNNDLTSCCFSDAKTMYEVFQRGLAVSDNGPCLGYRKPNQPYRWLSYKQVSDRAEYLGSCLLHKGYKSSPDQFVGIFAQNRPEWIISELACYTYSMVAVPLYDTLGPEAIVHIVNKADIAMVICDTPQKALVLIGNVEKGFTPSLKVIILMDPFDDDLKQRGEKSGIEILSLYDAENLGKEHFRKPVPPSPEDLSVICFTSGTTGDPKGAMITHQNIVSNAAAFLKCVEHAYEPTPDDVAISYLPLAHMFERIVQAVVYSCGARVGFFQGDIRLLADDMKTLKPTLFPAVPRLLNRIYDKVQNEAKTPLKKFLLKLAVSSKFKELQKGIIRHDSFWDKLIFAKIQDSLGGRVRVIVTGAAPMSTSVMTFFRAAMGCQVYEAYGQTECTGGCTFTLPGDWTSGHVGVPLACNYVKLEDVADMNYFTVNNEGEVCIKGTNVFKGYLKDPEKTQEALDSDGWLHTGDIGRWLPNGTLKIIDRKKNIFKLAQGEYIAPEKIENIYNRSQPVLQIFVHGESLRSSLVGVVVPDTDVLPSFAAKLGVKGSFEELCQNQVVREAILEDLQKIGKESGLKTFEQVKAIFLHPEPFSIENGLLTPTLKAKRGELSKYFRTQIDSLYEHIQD

SMILES	pIC50 (hACSL5 [1])	pIC50 (hACSL5 [2])
CC[C@@H](Oc1ccc(C(=O)NS(=O)(=O)C2CCN(C)CC2)c(F)c1F)c1ccc(Oc2ccccn2)cn1 [(R)-2,3-difluoro-N-((1-methylpiperidin-4-yl)sulfonyl)-4-(1-(5-(pyridin-2-yloxy)pyridin-2-yl)propoxy)benzamide]	6.30 to 7.00	> 7.00
CC[C@@H](Oc1ccc(C(=O)NS(=O)(=O)N2CCC(OC3CCN(C)CC3)CC2)c(F)c1F)c1cc(Oc2ccccn2)ccn1 [(R)-2,3-difluoro-N-((4-((1-methylpiperidin-4-yl)oxy)piperidin-1-yl)sulfonyl)-4-(1-(4-(pyridin-2-yloxy)pyridin-2-yl)propoxy)benzamide]	6.30 to 7.00	> 7.00
CC[C@@H](Oc1ccc(C(=O)NS(=O)(=O)N2CCN(C)CC2)c(F)c1F)c1cc(Oc2ccccn2)ccn1 [(R)-2,3-difluoro-N-((4-methylpiperazin-1-yl)sulfonyl)-4-(1-(4-(pyridin-2-yloxy)pyridin-2-yl)propoxy)benzamide]	6.30 to 7.00	> 7.00
CC[C@@H](Oc1ccc(C(=O)NS(=O)(=O)N2CCC(OC3CCN(C)CC3)CC2)c(F)c1F)c1cccc(OCC2CC2)c1 [(R)-4-(1-(3-(cyclopropylmethoxy)phenyl)propoxy)-2,3-difluoro-N-((4-((1-methylpiperidin-4-yl)oxy)piperidin-1-yl)sulfonyl)benzamide]	6.30 to 7.00	6.30 to 7.00
CC[C@@H](Oc1ccc(C(=O)NS(=O)(=O)c2ccc(OC3CCN(C)CC3)cc2)c(F)c1F)c1cc(OCC2CC2)ccn1 [(R)-4-(1-(4-(cyclopropylmethoxy)pyridin-2-yl)propoxy)-2,3-difluoro-N-((4-((1-methylpiperidin-4-yl)oxy)phenyl)sulfonyl)benzamide]	6.30 to 7.00	6.30 to 7.00
CC[C@@H](Oc1ccc(C(=O)NS(=O)(=O)N2CCC(OC3CCN(C)CC3)CC2)c(F)c1F)c1cc(OCC2CC2)ccn1 [(R)-4-(1-(4-(cyclopropylmethoxy)pyridin-2-yl)propoxy)-2,3-difluoro-N-((4-((1-methylpiperidin-4-yl)oxy)piperidin-1-yl)sulfonyl)benzamide]	6.30 to 7.00	6.30 to 7.00
CC[C@@H](Oc1ccc(C(=O)NS(=O)(=O)N2CCN(C)CC2)c(F)c1F)c1cc(OCC2CC2)ccn1 [(R)-4-(1-(4-(cyclopropylmethoxy)pyridin-2-yl)propoxy)-2,3-difluoro-N-((4-methylpiperazin-1-yl)sulfonyl)benzamide]	6.30 to 7.00	6.30 to 7.00
CC[C@@H](Oc1ccc(C(=O)NS(=O)(=O)c2ccc(OCCN(C)C)cc2)c(F)c1F)c1cc(OCC2CC2)ccn1 [(R)-4-(1-(4-(cyclopropylmethoxy)pyridin-2-yl)propoxy)-N-((4-(2-(dimethylamino)ethoxy)phenyl)sulfonyl)-2,3-difluorobenzamide]	6.30 to 7.00	6.30 to 7.00
CC[C@@H](Oc1ccc(C(=O)NS(=O)(=O)C2CCN(C)CC2)c(F)c1F)c1ccc(OCC2CC2)cn1 [(R)-4-(1-(5-(cyclopropylmethoxy)pyridin-2-yl)propoxy)-2,3-difluoro-N-((1-methylpiperidin-4-yl)sulfonyl)benzamide]	< 6.30	6.30 to 7.00
CC[C@@H](Oc1ccc(C(=O)NS(=O)(=O)c2cnc(OC3CCN(C)CC3)nc2)c(F)c1F)c1ccc(OCC2CC2)cn1 [(R)-4-(1-(5-(cyclopropylmethoxy)pyridin-2-yl)propoxy)-2,3-difluoro-N-((2-((1-methylpiperidin-4-yl)oxy)pyrimidin-5-yl)sulfonyl)benzamide]	< 6.30	> 7.00
CC[C@@H](Oc1ccc(C(=O)NS(=O)(=O)c2ccc(OCCN3CCN(C)CC3)cc2)c(F)c1F)c1ccc(OCC2CC2)cn1 [(R)-4-(1-(5-(cyclopropylmethoxy)pyridin-2-yl)propoxy)-2,3-difluoro-N-((4-(2-(4-methylpiperazin-1-yl)ethoxy)phenyl)sulfonyl)benzamide]	6.30 to 7.00	> 7.00
CC[C@@H](Oc1ccc(C(=O)NS(=O)(=O)c2ccc(OCCNC3COC3)cc2)c(F)c1F)c1ccc(OCC2CC2)cn1 [(R)-4-(1-(5-(cyclopropylmethoxy)pyridin-2-yl)propoxy)-2,3-difluoro-N-((4-(2-(oxetan-3-ylamino)ethoxy)phenyl)sulfonyl)benzamide]	6.30 to 7.00	> 7.00
CC[C@@H](Oc1ccc(C(=O)NS(=O)(=O)c2ccc(OCCN3CCCCC3)cc2)c(F)c1F)c1ccc(OCC2CC2)cn1 [(R)-4-(1-(5-(cyclopropylmethoxy)pyridin-2-yl)propoxy)-2,3-difluoro-N-((4-(2-(piperidin-1-yl)ethoxy)phenyl)sulfonyl)benzamide]	> 7.00	> 7.00
CC[C@@H](Oc1ccc(C(=O)NS(=O)(=O)c2ccc(OCCN3CCCC3)cc2)c(F)c1F)c1ccc(OCC2CC2)cn1 [(R)-4-(1-(5-(cyclopropylmethoxy)pyridin-2-yl)propoxy)-2,3-difluoro-N-((4-(2-(pyrrolidin-1-yl)ethoxy)phenyl)sulfonyl)benzamide]	6.30 to 7.00	> 7.00

Second part, the compound after the results:

pIC50 (hACSL5 [1])	pIC50 (hACSL5 [2])	SMILES
> 7.00	> 7.00	CC[C@@H](Oc1ccc(C(=O)NS(=O)(=O)N2CCN(C)[C@H](C)C2)c(F)c1F)c1ccc(OCC2CC2)cn1 [4-((R)-1-(5-(cyclopropylmethoxy)pyridin-2-yl)propoxy)-N-(((R)-3,4-dimethylpiperazin-1-yl)sulfonyl)-2,3-difluorobenzamide]
> 7.00	> 7.00	CC[C@@H](Oc1ccc(C(=O)NS(=O)(=O)N2CCN(C)[C@@H](C)C2)c(F)c1F)c1ccc(OCC2CC2)cn1 [4-((R)-1-(5-(cyclopropylmethoxy)pyridin-2-yl)propoxy)-N-(((S)-3,4-dimethylpiperazin-1-yl)sulfonyl)-2,3-difluorobenzamide]
> 7.00	> 7.00	CC[C@@H](Oc1ccc(C(=O)NS(=O)(=O)N2CCN(C)CC2(C)C)c(F)c1F)c1ccc(Oc2ccccn2)cn1 [(R)-2,3-difluoro-4-(1-(5-(pyridin-2-yloxy)pyridin-2-yl)propoxy)-N-((2,2,4-trimethylpiperazin-1-yl)sulfonyl)benzamide]
> 7.00	> 7.00	CC[C@@H](Oc1ccc(C(=O)NS(=O)(=O)N2CCN(CC(C)(C)F)CC2)c(F)c1F)c1ccc(Oc2ccccn2)cn1 [(R)-2,3-difluoro-N-((4-(2-fluoro-2-methylpropyl)piperazin-1-yl)sulfonyl)-4-(1-(5-(pyridin-2-yloxy)pyridin-2-yl)propoxy)benzamide]
> 7.00	> 7.00	CC[C@@H](Oc1ccc(C(=O)NS(=O)(=O)N2CCN(CC(C)(C)O)CC2)c(F)c1F)c1ccc(Oc2ccccn2)cn1 [(R)-2,3-difluoro-N-((4-(2-hydroxy-2-methylpropyl)piperazin-1-yl)sulfonyl)-4-(1-(5-(pyridin-2-yloxy)pyridin-2-yl)propoxy)benzamide]
> 7.00	> 7.00	CC[C@@H](Oc1ccc(C(=O)NS(=O)(=O)N2CCC(OC3CCN(CCOC)CC3)CC2)c(F)c1F)c1ccc(Oc2ccccn2)cn1 [(R)-2,3-difluoro-N-((4-((1-(2-methoxyethyl)piperidin-4-yl)oxy)piperidin-1-yl)sulfonyl)-4-(1-(5-(pyridin-2-yloxy)pyridin-2-yl)propoxy)benzamide]
> 7.00	> 7.00	CC[C@@H](Oc1ccc(C(=O)NS(=O)(=O)N2CCC(OC3CCN(C)CC3)CC2)c(F)c1F)c1ccc(Oc2ccccn2)cn1 [(R)-2,3-difluoro-N-((4-((1-methylpiperidin-4-yl)oxy)piperidin-1-yl)sulfonyl)-4-(1-(5-(pyridin-2-yloxy)pyridin-2-yl)propoxy)benzamide]
> 7.00	> 7.00	CC[C@@H](Oc1ccc(C(=O)NS(=O)(=O)N2CCN(C)CC2(C)C)c(F)c1F)c1ccc(OCC2CC2)cn1 [(R)-4-(1-(5-(cyclopropylmethoxy)pyridin-2-yl)propoxy)-2,3-difluoro-N-((2,2,4-trimethylpiperazin-1-yl)sulfonyl)benzamide]
> 7.00	> 7.00	CC[C@@H](Oc1ccc(C(=O)NS(=O)(=O)N2CCN(C)C(C)(C)C2)c(F)c1F)c1ccc(OCC2CC2)cn1 [(R)-4-(1-(5-(cyclopropylmethoxy)pyridin-2-yl)propoxy)-2,3-difluoro-N-((3,3,4-trimethylpiperazin-1-yl)sulfonyl)benzamide]
